Data as given in US20260209220A1, “SUBSTITUTED TETRAHYDROPYRROLO-PYRIDINONE COMPOUNDS AND THEIR USE IN TREATING MEDICAL CONDITIONS” (Karuna Therapeutics, Inc., priority 2022, published 2026).

Columns and labels:
rM4 receptors = molecular target: T1, rM4 receptors (Rattus norvegicus, UniProt P08485); assay: Rat M4 PAM PERK assay (CHO cells, TR-FRET, with EC20 acetylcholine); assay type: cell-based
T1 construct: expressed in transfected cells; host or cells: CHO cells
T1 sequence (P08485 1-478): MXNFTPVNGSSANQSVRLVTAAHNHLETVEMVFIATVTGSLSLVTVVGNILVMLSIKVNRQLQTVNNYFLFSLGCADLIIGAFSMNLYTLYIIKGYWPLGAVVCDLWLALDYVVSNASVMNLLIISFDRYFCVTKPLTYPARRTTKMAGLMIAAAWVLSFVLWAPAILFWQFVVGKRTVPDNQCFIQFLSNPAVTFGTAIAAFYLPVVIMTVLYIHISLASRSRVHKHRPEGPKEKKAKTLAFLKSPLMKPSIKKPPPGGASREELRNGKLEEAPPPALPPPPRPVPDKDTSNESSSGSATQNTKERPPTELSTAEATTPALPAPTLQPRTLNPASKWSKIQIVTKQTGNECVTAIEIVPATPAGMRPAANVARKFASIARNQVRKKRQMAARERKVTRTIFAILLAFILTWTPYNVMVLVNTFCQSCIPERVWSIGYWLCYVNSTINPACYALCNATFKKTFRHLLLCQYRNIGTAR
In short: (§1)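 CHO cells expressing human or rat M4, serum-starved 4 h, then given compound (10-point, 10 μM top, ½-log) with EC20 acetylcholine (10 nM final) for 5 min at 37 °C. Lysates assayed for phospho-ERK by TR-FRET after 2 h detection at RT.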

hM4 receptors = molecular target: T2, hM4 receptors (Homo sapiens, UniProt P08173); assay: Human M4 PAM PERK assay (CHO cells, TR-FRET, with EC20 acetylcholine); assay type: cell-based
T2 construct: expressed in transfected cells; host or cells: CHO cells
T2 sequence (P08173 1-479): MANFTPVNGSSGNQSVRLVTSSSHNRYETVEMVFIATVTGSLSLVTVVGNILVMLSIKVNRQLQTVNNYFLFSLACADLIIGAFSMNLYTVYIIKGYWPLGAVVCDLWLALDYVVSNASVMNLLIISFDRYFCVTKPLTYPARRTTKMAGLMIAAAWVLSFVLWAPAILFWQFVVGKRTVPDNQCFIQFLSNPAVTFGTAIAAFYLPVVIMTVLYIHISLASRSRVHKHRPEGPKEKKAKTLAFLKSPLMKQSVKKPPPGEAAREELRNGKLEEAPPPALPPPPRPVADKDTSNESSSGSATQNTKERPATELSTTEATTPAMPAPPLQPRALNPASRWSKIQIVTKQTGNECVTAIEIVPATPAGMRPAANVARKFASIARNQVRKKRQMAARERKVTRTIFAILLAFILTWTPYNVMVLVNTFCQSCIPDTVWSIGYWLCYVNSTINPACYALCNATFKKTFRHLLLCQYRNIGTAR
In short: as §1

human M4 receptor = molecular target: T3, human M4 receptor (Homo sapiens, UniProt P08173); assay: M4 GTPγS PAM assay (CHO-K1 membranes, 35S-GTP binding, with EC20 acetylcholine); assay type: biochemical; details: with EC20 acetylcholine (40 nM)
T3 construct: expressed in transfected cells; host or cells: CHO-K1 cells (membranes)
T3 sequence (P08173 1-479): T2 sequence (P08173 1-479)
Experimental: The M4 GTPγS PAM method was used. Membranes were prepared for GTPgS binding assays from CHO-K1 cells stably expressing human M4 receptor. Briefly, cells were grown in 5-layer cell culture flasks. Cells were washed with 50 mL of PBS and then dissociated with 0.05% trypsin. Dissociated cells were then collected by centrifugation at 650×g for 8 minutes at 4° C. Pellets were washed again in PBS by centrifugation and resuspended in 30 mL of 20 mM HEPES, 10 mM EDTA, pH 7.4. After sitting on ice for 30 min, membranes were collected by centrifugation at 50000×g for 15′ at 4° C., resuspended in 30 mL of 20 mM HEPES, 0.1 mM EDTA, pH 7.4 and collected again by centrifugation. Pellets were then washed twice by centrifugation in 30 mL of 20 mM HEPES, pH 7.4, and stored at −80° C. until the day of the assay. On the day of the assay, pellets were thawed on ice and resuspended in 1 mL of 20 mM HEPES, pH 7.4, 10 mM MgCl2, 100 mM NaCl using dounce homogenization. Membrane protein concentration is determined by BCA protein assay (Promega, Madison, WI) according to Promega guidelines.
On the day of the assay, serial dilutions of test PAM compounds were brought up in assay buffer (20 mM HEPES, 10 mM MgCl2, 100 mM NaCl) at 4X final assay concentration. […] of membrane homogenates (containing […] of membrane protein) were prepared in assay buffer supplemented with GDP at […] final assay concentration (final assay concentration of GDP is 5 μM for M2 and 0.1 μM for M4) and dispensed into 96 well polypropylene, U-bottom Greiner plates. 25 ml of vehicle or test PAM compound at 4× of final assay concentration diluted in the assay buffer were added to membrane and plates are incubated for 10-15 minutes at room temperature with gentle shaking. Then, […] of EC20 acetylcholine in assay buffer at 4× final assay concentration was added to assay plates (EC20 final assay concentrations was 40 nM for human M4).
Plates were then incubated, with shaking, for an additional 10-15 minutes. […] of 0.4 nM 35S-GTP (Perkin Elmer, Waltham, MA) in assay buffer was added to assay mixtures. The binding reaction is left on the shaker for 1 hour at room temperature. Membranes in assay reactions were then transferred to GF/C filter plates (Unifilter, Perkin Elmer) and washed three times using a FilterMate Harvester (Perkin Elmer) with cold assay buffer containing no GDP. Filter plates were then dried at 40° C. overnight followed by the addition of […] of Beta Plate Scintillation liquid. Plates are top and bottom sealed before being read on TopCount scintillation counter (Perkin Elmer, Waltham, MA).

| EC50 (rM4 receptors) [nM] | EC50 (hM4 receptors) [nM] | EC50 (human M4 receptor) [nM] | SMILES |
| --- | --- | --- | --- |
| 50 to 200 | 50 to 200 | < 50 | Cc1c2c(n(C)c(=O)c1F)CN(C(=O)CC1CN(c3ccc(C(F)(F)F)cc3)C1)C2 [Compound I-85] |
| 50 to 200 | 200 to 1000 | 200 to 1000 | Cc1c2c(n(C)c(=O)c1F)CN(C(=O)CC1CN(c3cnc(C(F)(F)F)cn3)C1)C2 [Compound I-90] |
| 200 to 1000 | 200 to 1000 | > 1000 | Cn1c2c(c(C(F)(F)F)cc1=O)CN(C(=O)CC1CN(c3cccnc3)C1)C2 [Compound I-91, 1-Methyl-6-(2-(1-(pyridin-3-yl)azetidin-3-yl)acetyl)-4-(trifluoromethyl)-1,5,6,7-tetrahydro-2H-pyrrolo[3,4-b]pyridin-2-one] |
| > 1000 | 200 to 1000 | > 1000 | COc1cc(N2CC(CC(=O)N3Cc4c(C(F)(F)F)cc(=O)n(C)c4C3)C2)ccn1 [Compound I-92] |
| > 1000 | 50 to 200 | 50 to 200 | Cc1c2c(n(CC(F)(F)F)c(=O)c1Cl)CN(C(=O)CC1CN(c3ccncn3)C1)C2 [Compound I-95] |
| 200 to 1000 | 50 to 200 | < 50 | COc1c2c(n(C)c(=O)c1C)CN(C(=O)CC1CN(c3ccc(C(F)(F)F)cc3)C1)C2 [Compound I-100] |
| 200 to 1000 | 200 to 1000 | 50 to 200 | Cc1cc(=O)n(CC2CC2)c2c1CN(C(=O)CC1CN(c3ccc(C(F)(F)F)cc3)C1)C2 [Compound I-102] |
| 200 to 1000 | 200 to 1000 | 50 to 200 | Cc1cc(=O)n(C)c2c1C(C)N(C(=O)CC1CN(c3ccc(C(F)(F)F)cc3)C1)C2 (stereo not drawn) [Compound I-115] |
| > 1000 | > 1000 | > 1000 | Cc1cc(=O)n(C)c2c1[C@H](C)N(C(=O)CC1CN(c3ccc(C(F)(F)F)cc3)C1)C2 [Compound I-116, (S)-1,4,5-trimethyl-6-(2-(1-(4-(trifluoromethyl)phenyl)azetidin-3-yl)acetyl)-1,5,6,7-tetrahydro-2H-pyrrolo[3,4-b]pyridin-2-one] |
| 200 to 1000 | 200 to 1000 | < 50 | Cc1cc(=O)n(C)c2c1[C@@H](C)N(C(=O)CC1CN(c3ccc(C(F)(F)F)cc3)C1)C2 [Compound I-117, (R)-1,4,5-trimethyl-6-(2-(1-(4-(trifluoromethyl)phenyl)azetidin-3-yl)acetyl)-1,5,6,7-tetrahydro-2H-pyrrolo[3,4-b]pyridin-2-one] |

The next lines start with the compound.

| SMILES | EC50 (rM4 receptors) [nM] | EC50 (hM4 receptors) [nM] | EC50 (human M4 receptor) [nM] |
| --- | --- | --- | --- |
| COc1cc(N2CC(CC(=O)N3Cc4c(C)cc(=O)n(C)c4C3)C2)cc(C(F)(F)F)n1 [Compound I-39, 6-(2-(1-(2-Methoxy-6-(trifluoromethyl)pyridin-4-yl)azetidin-3-yl)acetyl)-1,4-dimethyl-1,5,6,7-tetrahydro-2H-pyrrolo[3,4-b]pyridin-2-one] | 200 to 1000 | 50 to 200 | 200 to 1000 |
| Cc1c2c(n(C)c(=O)c1C)CN(C(=O)CC1CN(c3ccc(C(F)(F)F)cc3)C1)C2 [Compound I-43] | 50 to 200 | 50 to 200 | < 50 |
| Cc1c2c(n(C)c(=O)c1C)CN(C(=O)CC1CN(c3ncns3)C1)C2 [Compound I-44] | 200 to 1000 | < 50 | 50 to 200 |
| Cc1c2c(n(C)c(=O)c1C)CN(C(=O)CC1CN(c3ccc(C#N)cc3)C1)C2 [Compound I-45] | 50 to 200 | < 50 | < 50 |
| Cc1c2c(n(C)c(=O)c1C)CN(C(=O)CC1CN(c3ccc(F)c(C4CC4)c3)C1)C2 [Compound I-55] | 50 to 200 | 200 to 1000 | 50 to 200 |
| Cc1c2c(n(C)c(=O)c1C)CN(C(=O)CC1CN(c3cc(F)cc(F)c3)C1)C2 [Compound I-56] | 50 to 200 | < 50 | 50 to 200 |
| Cc1c2c(n(C)c(=O)c1C)CN(C(=O)CC1CN(c3cnc(C4CC4)cn3)C1)C2 [Compound I-58] | 50 to 200 | 50 to 200 | 50 to 200 |
| Cc1c2c(n(C)c(=O)c1C)CN(C(=O)CC1CN(c3ccc(C(C)(C)O)c(F)c3)C1)C2 [Compound I-59] | 50 to 200 | < 50 | < 50 |
| Cc1c2c(n(C)c(=O)c1C)CN(C(=O)CC1CN(c3ccc(F)c(OC4CC4)c3)C1)C2 [Compound I-63, 6-(2-(1-(3-cyclopropoxy-4-fluorophenyl)azetidin-3-yl)acetyl)-1,3,4-trimethyl-1,5,6,7-tetrahydro-2H-pyrrolo[3,4-b]pyridin-2-one] | 200 to 1000 | 200 to 1000 | < 50 |
| Cc1c2c(n(C)c(=O)c1C)CN(C(=O)CC1CN(c3nc(C(F)(F)F)c(C4CC4)s3)C1)C2 [Compound I-64, 6-(2-(1-(5-Cyclopropyl-4-(trifluoromethyl)thiazol-2-yl)azetidin-3-yl)acetyl)-1,3,4-trimethyl-1,5,6,7-tetrahydro-2H-pyrrolo[3,4-b]pyridin-2-one] | 200 to 1000 | 50 to 200 | 50 to 200 |
| Cc1c2c(n(C)c(=O)c1C)CN(C(=O)CC1CN(c3nc(C4CC4)c(C(F)(F)F)s3)C1)C2 [Compound I-65, 6-(2-(1-(4-cyclopropyl-5-(trifluoromethyl)thiazol-2-yl)azetidin-3-yl)acetyl)-1,3,4-trimethyl-1,5,6,7-tetrahydro-2H-pyrrolo[3,4-b]pyridin-2-one] | 200 to 1000 | 200 to 1000 | < 50 |
| Cc1c2c(n(C)c(=O)c1Cl)CN(C(=O)CC1CN(c3ccnc(C(F)(F)F)c3)C1)C2 [Compound I-66, 3-Chloro-1,4-dimethyl-6-(2-(1-(2-(trifluoromethyl)pyridin-4-yl)azetidin-3-yl)acetyl)-1,5,6,7-tetrahydro-2H-pyrrolo[3,4-b]pyridin-2-one] | 50 to 200 | < 50 | < 50 |
| Cc1c2c(n(C)c(=O)c1Cl)CN(C(=O)CC1CN(c3ccc(C(F)(F)F)cc3)C1)C2 [Compound I-68] | < 50 | < 50 | < 50 |
| Cc1c2c(n(C)c(=O)c1Cl)CN(C(=O)CC1CN(c3ccc(C(F)(F)F)nc3)C1)C2 [Compound I-78] | 50 to 200 | < 50 | 50 to 200 |
| Cc1c2c(n(C)c(=O)c1Cl)CN(C(=O)CC1CN(c3ccc(F)cc3)C1)C2 [Compound I-79] | 50 to 200 | < 50 | < 50 |
| Cc1c2c(n(C)c(=O)c1Cl)CN(C(=O)CC1CN(c3ncns3)C1)C2 [Compound I-80] | 200 to 1000 | < 50 | 50 to 200 |
